These results are taken from ChEMBL document CHEMBL4177528, “Recent developments in drug discovery against the protozoal parasites Cryptosporidium and Toxoplasma” (Bioorg Med Chem Lett, 2017).

The test system of assay [1] is Toxoplasma gondii. The assay can be described thus: Antiparasitic activity against Toxoplasma gondii after 4 days by chlorophenol red-beta-D-galactosidase based assay. To be noted: 96 h. It counts as functional, organism-based.
Assay [2] deals with Toxoplasma gondii. The assay can be described thus: Antiparasitic activity against tachyzoite stage of Toxoplasma gondii RH infected in Swiss Webster mouse assessed as mouse survival for 60 days post infection. The format is functional.
The test system of assay [3] is Toxoplasma gondii. The assay can be described thus: Antiparasitic activity against Toxoplasma gondii assessed as population with apicoplast loss after 4 days by Hoechst staining based microscopy. The format is functional.
Another assay concerns Cryptosporidium parvum. The assay can be described thus: Antiparasitic activity against Cryptosporidium parvum infected in human HCT8 cells incubated for 24 hrs post 3 hrs infection by Hoechst 33258 staining based epifluorescence microscopy. It counts as functional.
In assay [4] the test system is Toxoplasma gondii. The assay can be described thus: Antiparasitic activity against tachyzoite stage of Toxoplasma gondii infected in LLC-MK2 cells after 6 hrs. It counts as functional.

Some results are limits rather than exact numbers.

In the assay on Toxoplasma gondii [1], `Clc1ccc2ccccc2n1` displayed an IC50 of 5 to 6 µM.
Regarding `CCOC(=O)c1cn(C2CC2)c2cc(N3CCNCC3)c(F)cc2c1=O` [CIPROFLOXACIN ETHYL ESTER], the Survival in the assay with Toxoplasma gondii [2] was 13 - 25%.
Compound `FC(F)(F)c1ccc2c(NCCCN3CCN(c4cccc5nc(Cl)ccc45)CC3)ccnc2c1` gave an IC50 in the assay on Toxoplasma gondii [1] of 0.425 µM. In the assay on Toxoplasma gondii [3], the Activity was 40 - 45%.
The compound `[O-][n+]1cccc2ccccc21` registered an IC50 in the assay on Toxoplasma gondii [1] of 5 to 6 µM.
Consider `CCOC(=O)c1cn(C2CC2)c2cc(N3CCN(Cc4ccccc4)CC3)c(F)cc2c1=O`, for which the Survival in the assay with Toxoplasma gondii [2] is 13 - 25%.
Take `Oc1cccc2cccnc12` [OXYQUINOLINE]: in the assay with Toxoplasma gondii [1], the IC50 was found to be 0.213 µM.
For `O=C(O)c1cn(C2CC2)c2cc(N3CCN(CC45CC6CC(CC(C6)C4)C5)CC3)c(F)cc2c1=O`, the Survival in the assay with Toxoplasma gondii [2] was 13 - 25%.
As to `COc1cccc(C(=O)NC(c2ccc(C)cc2)c2cc(Cl)c3cccnc3c2O)c1` (centres undefined), in the assay with Cryptosporidium parvum, the Activity was determined as 0.054 µM.
Compound `O=C1C2=C(C(=O)c3ccccc31)[C@H]1Oc3ccc(Br)cc3[C@H]1CO2` had an Activity in the assay on Toxoplasma gondii [4] of less than 1 µM.
As to `O=[N+]([O-])c1cccc2ncccc12`, the IC50 with Toxoplasma gondii [1] is 5 to 6 µM.
Consider `Cc1cccc(-n2ncc3c(O)nc(-n4nc(C)cc4NC(=O)c4cc5ccccc5o4)nc32)c1`, for which, in the assay with Cryptosporidium parvum, the Activity came to 0.12 µM.
Compound `c1ccc2ncccc2c1` [QUINOLINE] yielded an IC50 with Toxoplasma gondii [1] of 5 to 6 µM.
On to `O=C(O)c1cn(C2CC2)c2cc(N3CCNCC3)c(F)cc2c1=O` [CIPROFLOXACIN], for which the Survival in the assay with Toxoplasma gondii [2] is given as 13 - 25%.

Broadly, the IC50 is the concentration that gives 50% inhibition.
